According to ChEMBL document CHEMBL5291721, “A preclinical secondary pharmacology resource illuminates target-adverse drug reaction associations of marketed drugs” (Nat Commun, 2023):

Assays:
D(1A) dopamine receptor = D(1A) dopamine receptor (Homo sapiens, UniProt P21728)
[1] = biological target: T1, Alpha-2A adrenergic receptor (Homo sapiens, UniProt P08913)
T1 sequence (P08913 whole entry): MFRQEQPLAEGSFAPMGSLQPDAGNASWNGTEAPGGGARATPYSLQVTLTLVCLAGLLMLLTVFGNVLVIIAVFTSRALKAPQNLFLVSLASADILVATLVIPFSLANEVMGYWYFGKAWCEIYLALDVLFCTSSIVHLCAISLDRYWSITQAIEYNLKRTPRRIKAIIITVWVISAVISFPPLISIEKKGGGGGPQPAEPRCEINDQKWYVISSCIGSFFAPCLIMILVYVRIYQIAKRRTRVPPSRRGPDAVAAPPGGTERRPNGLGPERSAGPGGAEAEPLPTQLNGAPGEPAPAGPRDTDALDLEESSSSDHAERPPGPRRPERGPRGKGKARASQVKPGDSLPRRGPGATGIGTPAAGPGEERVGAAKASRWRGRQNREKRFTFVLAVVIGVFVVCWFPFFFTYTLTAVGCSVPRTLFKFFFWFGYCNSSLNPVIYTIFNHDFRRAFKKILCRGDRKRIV

Histamine H2 receptor = Histamine H2 receptor (Homo sapiens, UniProt P25021)
Chain of Histamine H2 receptor (P25021 whole entry): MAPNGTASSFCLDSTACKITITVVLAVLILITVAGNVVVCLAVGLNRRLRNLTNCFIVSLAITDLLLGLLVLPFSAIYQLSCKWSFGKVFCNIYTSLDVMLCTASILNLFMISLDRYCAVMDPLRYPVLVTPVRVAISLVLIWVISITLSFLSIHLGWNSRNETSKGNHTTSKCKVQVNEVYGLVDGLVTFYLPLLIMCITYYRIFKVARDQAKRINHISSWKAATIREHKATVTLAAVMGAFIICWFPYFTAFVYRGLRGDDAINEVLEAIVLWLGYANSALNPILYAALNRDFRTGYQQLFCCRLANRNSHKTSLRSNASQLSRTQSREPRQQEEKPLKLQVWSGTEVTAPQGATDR

Androgen receptor [2] = biological target: T2, Androgen receptor (Homo sapiens, UniProt P10275)
T2 sequence (P10275 whole entry): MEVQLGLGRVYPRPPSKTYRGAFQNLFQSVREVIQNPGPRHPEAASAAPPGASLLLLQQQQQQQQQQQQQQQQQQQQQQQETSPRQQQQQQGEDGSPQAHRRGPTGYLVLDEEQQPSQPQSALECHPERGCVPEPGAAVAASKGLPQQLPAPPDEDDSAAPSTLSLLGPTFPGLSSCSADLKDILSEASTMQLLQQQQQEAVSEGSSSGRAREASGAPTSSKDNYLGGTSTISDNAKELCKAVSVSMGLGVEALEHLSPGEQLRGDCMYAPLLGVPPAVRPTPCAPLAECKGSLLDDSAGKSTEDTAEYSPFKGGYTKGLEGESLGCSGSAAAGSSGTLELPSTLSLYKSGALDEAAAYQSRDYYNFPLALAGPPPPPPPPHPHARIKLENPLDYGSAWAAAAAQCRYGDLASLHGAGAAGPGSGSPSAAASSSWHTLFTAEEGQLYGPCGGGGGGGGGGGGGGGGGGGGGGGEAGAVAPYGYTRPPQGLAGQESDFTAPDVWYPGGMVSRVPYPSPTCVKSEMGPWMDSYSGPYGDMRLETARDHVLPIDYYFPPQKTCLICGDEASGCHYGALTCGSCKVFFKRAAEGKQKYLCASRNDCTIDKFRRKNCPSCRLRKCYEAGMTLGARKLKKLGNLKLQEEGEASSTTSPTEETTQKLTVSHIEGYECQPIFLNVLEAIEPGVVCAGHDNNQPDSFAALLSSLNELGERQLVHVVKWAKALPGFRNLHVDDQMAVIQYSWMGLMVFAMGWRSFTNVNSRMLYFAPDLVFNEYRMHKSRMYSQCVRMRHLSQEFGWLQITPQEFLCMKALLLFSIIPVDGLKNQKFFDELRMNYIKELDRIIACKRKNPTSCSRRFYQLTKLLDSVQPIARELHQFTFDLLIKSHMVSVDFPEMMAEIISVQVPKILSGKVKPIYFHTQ

Androgen receptor [3] = biological target: T3, Androgen receptor (Rattus norvegicus, UniProt P15207)
T3 sequence (P15207 whole entry): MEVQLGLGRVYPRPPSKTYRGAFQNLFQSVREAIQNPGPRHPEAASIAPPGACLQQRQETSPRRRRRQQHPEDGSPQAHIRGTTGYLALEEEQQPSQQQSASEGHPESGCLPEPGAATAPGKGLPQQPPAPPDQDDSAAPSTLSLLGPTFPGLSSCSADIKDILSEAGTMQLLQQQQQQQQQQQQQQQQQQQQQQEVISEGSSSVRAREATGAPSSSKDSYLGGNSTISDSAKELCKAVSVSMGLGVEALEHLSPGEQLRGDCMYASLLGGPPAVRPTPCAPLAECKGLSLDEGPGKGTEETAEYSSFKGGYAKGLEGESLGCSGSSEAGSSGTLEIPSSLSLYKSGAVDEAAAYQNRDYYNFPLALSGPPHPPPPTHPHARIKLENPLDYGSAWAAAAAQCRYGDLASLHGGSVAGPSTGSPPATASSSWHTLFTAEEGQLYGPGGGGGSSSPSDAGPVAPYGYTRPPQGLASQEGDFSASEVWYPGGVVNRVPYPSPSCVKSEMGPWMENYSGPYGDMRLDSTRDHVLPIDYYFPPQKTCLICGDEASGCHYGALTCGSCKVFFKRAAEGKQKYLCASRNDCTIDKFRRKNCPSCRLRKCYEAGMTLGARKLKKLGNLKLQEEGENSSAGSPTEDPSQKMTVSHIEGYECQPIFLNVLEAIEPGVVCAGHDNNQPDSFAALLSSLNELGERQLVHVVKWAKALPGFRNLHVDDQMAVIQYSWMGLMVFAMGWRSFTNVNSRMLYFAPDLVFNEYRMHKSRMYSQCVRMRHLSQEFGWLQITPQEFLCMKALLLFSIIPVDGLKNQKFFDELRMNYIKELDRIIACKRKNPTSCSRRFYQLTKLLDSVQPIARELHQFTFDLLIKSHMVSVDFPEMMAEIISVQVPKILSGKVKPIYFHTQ

[4] = biological target: Gamma-aminobutyric acid receptor subunit alpha-1/alpha-2/beta-2/gamma-2 (Homo sapiens, UniProt P14867+P18507+P47869+P47870); format: functional, cell-based
Chain of Gamma-aminobutyric acid receptor subunit alpha-1/alpha-2/beta-2/gamma-2 (P14867 whole entry): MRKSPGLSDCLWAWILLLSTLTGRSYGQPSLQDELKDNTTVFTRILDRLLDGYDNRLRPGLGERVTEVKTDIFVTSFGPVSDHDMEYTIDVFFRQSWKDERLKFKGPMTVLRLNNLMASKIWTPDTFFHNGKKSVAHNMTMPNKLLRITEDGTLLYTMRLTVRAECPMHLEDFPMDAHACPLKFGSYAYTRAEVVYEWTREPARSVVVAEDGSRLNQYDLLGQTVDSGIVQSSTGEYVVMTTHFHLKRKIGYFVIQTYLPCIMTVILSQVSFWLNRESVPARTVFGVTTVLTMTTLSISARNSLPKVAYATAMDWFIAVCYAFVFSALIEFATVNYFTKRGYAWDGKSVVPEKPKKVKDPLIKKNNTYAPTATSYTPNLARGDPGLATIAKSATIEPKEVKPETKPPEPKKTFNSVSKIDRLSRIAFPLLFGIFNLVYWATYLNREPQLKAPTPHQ
Chain of Gamma-aminobutyric acid receptor subunit alpha-1/alpha-2/beta-2/gamma-2 (P47870 whole entry): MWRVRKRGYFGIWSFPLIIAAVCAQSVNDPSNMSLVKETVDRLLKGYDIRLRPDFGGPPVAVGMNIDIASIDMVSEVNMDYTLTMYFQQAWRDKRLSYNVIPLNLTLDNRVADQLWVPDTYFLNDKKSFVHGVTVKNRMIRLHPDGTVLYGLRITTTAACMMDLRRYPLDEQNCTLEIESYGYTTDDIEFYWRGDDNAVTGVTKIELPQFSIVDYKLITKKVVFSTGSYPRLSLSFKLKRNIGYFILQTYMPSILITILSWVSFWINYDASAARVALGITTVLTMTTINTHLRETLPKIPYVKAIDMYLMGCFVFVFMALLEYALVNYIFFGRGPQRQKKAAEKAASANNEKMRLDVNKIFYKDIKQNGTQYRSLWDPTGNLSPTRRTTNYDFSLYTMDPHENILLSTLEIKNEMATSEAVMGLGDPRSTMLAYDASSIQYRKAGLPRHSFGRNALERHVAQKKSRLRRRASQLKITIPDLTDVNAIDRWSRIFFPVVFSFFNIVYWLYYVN
Chain of Gamma-aminobutyric acid receptor subunit alpha-1/alpha-2/beta-2/gamma-2 (P18507 whole entry): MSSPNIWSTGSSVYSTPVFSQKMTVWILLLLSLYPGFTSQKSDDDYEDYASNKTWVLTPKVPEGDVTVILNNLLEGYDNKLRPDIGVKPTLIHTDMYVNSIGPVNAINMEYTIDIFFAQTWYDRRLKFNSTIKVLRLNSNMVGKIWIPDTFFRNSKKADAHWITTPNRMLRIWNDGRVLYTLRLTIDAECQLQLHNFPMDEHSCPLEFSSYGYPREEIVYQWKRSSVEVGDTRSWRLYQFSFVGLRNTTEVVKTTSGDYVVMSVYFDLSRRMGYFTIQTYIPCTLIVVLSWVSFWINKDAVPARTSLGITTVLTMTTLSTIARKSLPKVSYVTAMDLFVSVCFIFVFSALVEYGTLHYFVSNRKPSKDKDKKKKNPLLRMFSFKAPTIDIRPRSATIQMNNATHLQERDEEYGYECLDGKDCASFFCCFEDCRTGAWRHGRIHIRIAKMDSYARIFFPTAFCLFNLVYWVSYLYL
Chain of Gamma-aminobutyric acid receptor subunit alpha-1/alpha-2/beta-2/gamma-2 (P47869 whole entry): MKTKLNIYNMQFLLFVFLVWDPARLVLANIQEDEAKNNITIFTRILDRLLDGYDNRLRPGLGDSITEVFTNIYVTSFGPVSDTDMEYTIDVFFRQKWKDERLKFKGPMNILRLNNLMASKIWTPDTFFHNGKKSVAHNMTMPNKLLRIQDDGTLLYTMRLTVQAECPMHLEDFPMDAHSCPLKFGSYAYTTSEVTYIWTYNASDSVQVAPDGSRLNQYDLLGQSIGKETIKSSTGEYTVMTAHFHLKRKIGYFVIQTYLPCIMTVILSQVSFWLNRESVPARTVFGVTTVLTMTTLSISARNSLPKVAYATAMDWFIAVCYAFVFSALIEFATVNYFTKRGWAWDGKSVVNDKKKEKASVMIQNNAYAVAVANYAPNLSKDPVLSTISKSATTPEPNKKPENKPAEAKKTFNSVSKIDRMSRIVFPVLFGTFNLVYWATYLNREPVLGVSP

D(4) dopamine receptor = biological target: T4, D(4) dopamine receptor (Homo sapiens, UniProt P21917)
T4 sequence (P21917 whole entry): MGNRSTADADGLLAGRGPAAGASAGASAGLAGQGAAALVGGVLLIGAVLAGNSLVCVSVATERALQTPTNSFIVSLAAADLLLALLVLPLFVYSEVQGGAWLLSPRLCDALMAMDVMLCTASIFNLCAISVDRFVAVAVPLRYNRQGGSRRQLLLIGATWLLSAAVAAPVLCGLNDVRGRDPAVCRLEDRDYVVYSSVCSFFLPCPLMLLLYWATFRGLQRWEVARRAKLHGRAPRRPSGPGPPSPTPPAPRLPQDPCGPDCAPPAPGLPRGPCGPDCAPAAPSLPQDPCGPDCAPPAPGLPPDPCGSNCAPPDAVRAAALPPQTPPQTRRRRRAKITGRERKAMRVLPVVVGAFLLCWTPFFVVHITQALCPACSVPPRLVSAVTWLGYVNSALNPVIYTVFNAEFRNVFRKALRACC
Note: assay procedure not described here.

Chain of D(1A) dopamine receptor (P21728 whole entry): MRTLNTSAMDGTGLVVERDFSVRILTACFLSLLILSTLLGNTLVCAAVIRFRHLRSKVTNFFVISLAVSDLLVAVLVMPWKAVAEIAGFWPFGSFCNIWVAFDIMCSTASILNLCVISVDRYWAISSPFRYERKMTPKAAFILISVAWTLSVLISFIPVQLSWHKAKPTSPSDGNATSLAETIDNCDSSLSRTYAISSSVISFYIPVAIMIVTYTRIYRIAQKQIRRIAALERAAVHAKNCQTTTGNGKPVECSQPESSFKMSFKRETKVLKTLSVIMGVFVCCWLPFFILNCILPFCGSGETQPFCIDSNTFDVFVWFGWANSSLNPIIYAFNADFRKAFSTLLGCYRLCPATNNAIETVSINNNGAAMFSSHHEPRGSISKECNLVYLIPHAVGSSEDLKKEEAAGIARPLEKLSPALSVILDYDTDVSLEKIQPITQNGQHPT

## [H]/N=C(/N)N/C(=N/[H])NCCc1ccccc1 [PHENFORMIN]
D(1A) dopamine receptor
  AC50: > 10 µM
[1]
  AC50: 6.71 µM
Histamine H2 receptor
  AC50: > 10 µM

## CCOC(=O)N1CSC[C@H]1C(=O)O [TELMESTEINE]
Androgen receptor [2]
  AC50: > 30 µM

## CC1OC2(CS1)CN1CCC2CC1 (centres undefined) [CEVIMELINE]
Androgen receptor [3]
  AC50: > 10 µM

## Oc1ccc2c(c1)CC[C@H](c1ccccc1)[C@@H]2c1ccc(OCCN2CCCC2)cc1 [LASOFOXIFENE]
[4]
  AC50: > 30 µM

## Cc1cc(C(C)(C)C)cc(C)c1CC1=NCCN1 [XYLOMETAZOLINE]
[4]
  AC50: > 30 µM
[1]
  AC50: 0.03 µM

## C[C@]12CC[C@@H]3c4ccc(O)cc4C[C@@H](CCCCCCCCC[S+]([O-])CCCC(F)(F)C(F)(F)F)[C@H]3[C@@H]1CC[C@@H]2O (some centres undefined) [FULVESTRANT]
[4]
  AC50: > 30 µM

## CC(C)N(CCNC(=O)CN1CCCC1=O)C(C)C
Androgen receptor [2]
  AC50: > 30 µM

## CC(N)C(O)c1ccccc1 (centres undefined) [PHENYLPROPANOLAMINE]
D(1A) dopamine receptor
  AC50: > 10 µM
[1]
  AC50: > 10 µM
Histamine H2 receptor
  AC50: > 10 µM
D(4) dopamine receptor
  AC50: > 10 µM

## CN(C)CCOC(c1ccccc1)c1ccc(Br)cc1 (centres undefined) [BROMODIPHENHYDRAMINE]
Androgen receptor [2]
  AC50: > 30 µM

## OC1(c2ccc(Cl)cc2)c2ccccc2C2=NCCN21 (centres undefined) [MAZINDOL]
D(1A) dopamine receptor
  AC50: > 10 µM
Androgen receptor [3]
  AC50: > 30 µM
[1]
  AC50: > 10 µM
Histamine H2 receptor
  AC50: > 10 µM
D(4) dopamine receptor
  AC50: > 10 µM

## NCC(CC(=O)O)c1ccccc1 (centres undefined) [PHENIBUT]
Androgen receptor [2]
  AC50: > 30 µM

## CC(C)NCC(O)c1ccc(O)c(O)c1 (centres undefined) [ISOPROTERENOL]
D(1A) dopamine receptor
  AC50: > 10 µM
Histamine H2 receptor
  AC50: > 10 µM
D(4) dopamine receptor
  AC50: > 10 µM

## CCC(=O)O[C@]1(C(=O)SCF)[C@H](C)C[C@H]2[C@@H]3C[C@H](F)C4=CC(=O)C=C[C@]4(C)[C@@]3(F)[C@@H](O)C[C@@]21C [FLUTICASONE PROPIONATE]
D(1A) dopamine receptor
  AC50: > 10 µM
[1]
  AC50: > 10 µM
Histamine H2 receptor
  AC50: > 10 µM
D(4) dopamine receptor
  AC50: > 10 µM

## CC1=CCC(C(C)(C)O)CC1O (centres undefined) [SOBREROL]
Androgen receptor [2]
  AC50: > 30 µM

## CC(CCc1ccc(O)cc1)NCCc1ccc(O)c(O)c1 (centres undefined) [DOBUTAMINE]
D(1A) dopamine receptor
  AC50: > 10 µM
[1]
  AC50: 10.8 µM
Histamine H2 receptor
  AC50: > 10 µM
D(4) dopamine receptor
  AC50: 2.42 µM

## CCCc1nc(C(C)(C)O)c(C(=O)O)n1Cc1ccc(-c2ccccc2-c2nnn[nH]2)cc1 [OLMESARTAN]
Androgen receptor [2]
  AC50: > 30 µM

## CCC1(c2ccccc2)CCC(=O)NC1=O (centres undefined) [GLUTETHIMIDE]
Androgen receptor [3]
  AC50: > 10 µM

## O=[N+]([O-])c1ccc(O)c2ncccc12 [NITROXOLINE]
[4]
  AC50: > 30 µM

## C/N=C(\NC)NCc1ccccc1 [BETHANIDINE]
[4]
  AC50: > 30 µM

## CCC(=O)O[C@H]1CC[C@H]2[C@@H]3CCC4=CC(=O)CC[C@]4(C)[C@H]3CC[C@]12C [TESTOSTERONE PROPIONATE]
Androgen receptor [3]
  AC50: 1.7 µM

## CNCc1ccc(-c2[nH]c3cc(F)cc4c3c2CCNC4=O)cc1 [RUCAPARIB]
Androgen receptor [3]
  AC50: > 30 µM

## CNC1=Nc2ccc(Cl)cc2C(c2ccccc2)=[N+]([O-])C1 [CHLORDIAZEPOXIDE]
Androgen receptor [3]
  AC50: > 30 µM
[1]
  AC50: > 10 µM

## C[C@H](Cc1cc2c(c(C(N)=O)c1)N(CCCO)CC2)NCCOc1ccccc1OCC(F)(F)F [SILODOSIN]
Androgen receptor [2]
  AC50: > 30 µM

## COc1cc(N2CCC(N3CCN(C)CC3)CC2)ccc1Nc1ncc(Cl)c(Nc2ccccc2P(C)(C)=O)n1 [BRIGATINIB]
Androgen receptor [2]
  AC50: > 30 µM

## CCCN[C@H]1CCc2nc(N)sc2C1 [PRAMIPEXOLE]
Histamine H2 receptor
  AC50: 3.86 µM

## CN1CCC(=C2c3ccccc3CCc3cccnc32)CC1 [AZATADINE]
[1]
  AC50: > 10 µM

## CCOC(=O)C1=C(C)NC(C)=C(C(=O)OC)C1c1cccc([N+](=O)[O-])c1 (centres undefined) [NITRENDIPINE]
D(1A) dopamine receptor
  AC50: > 10 µM
[1]
  AC50: > 10 µM
Histamine H2 receptor
  AC50: > 10 µM

## CCC(C)C(CC)C(N)=O (centres undefined) [VALNOCTAMIDE]
[4]
  AC50: > 30 µM

## c1ccc2c(c1)CCc1ccccc1N2C1CN2CCC1CC2 (centres undefined) [QUINUPRAMINE]
Androgen receptor [2]
  AC50: > 30 µM

## Cc1cnc(C(=O)NCCc2ccc(S(=O)(=O)NC(=O)NC3CCCCC3)cc2)cn1 [GLIPIZIDE]
[1]
  AC50: > 10 µM
Histamine H2 receptor
  AC50: > 10 µM
D(4) dopamine receptor
  AC50: > 10 µM

## CCC[C@H](NC(=O)[C@@H]1[C@H]2CCC[C@H]2CN1C(=O)[C@@H](NC(=O)[C@@H](NC(=O)c1cnccn1)C1CCCCC1)C(C)(C)C)C(=O)C(=O)NC1CC1
D(1A) dopamine receptor
  AC50: > 10 µM
Androgen receptor [3]
  AC50: > 30 µM
[1]
  AC50: > 10 µM
Histamine H2 receptor
  AC50: > 10 µM

## CN1CCN(C2=Nc3ccccc3Oc3ccc(Cl)cc32)CC1 [LOXAPINE]
D(1A) dopamine receptor
  AC50: 0.102 µM
D(4) dopamine receptor
  AC50: 0.0144 µM
